Measured values from US20260216108A1, “PHARMACEUTICAL COMPOSITION CONTAINING A MITOPHAGY INDUCER” (HANGZHOU PHECDAMED CO., LTD., priority 2023, published 2026).

Experiments:
Assay type in all cases: physicochemical
[1] = Compatibility test of API and auxiliary materials: appearance; conditions: opened
Description: The experimental steps are as follows:
1. Taking out the sample according to the sampling time point set in the raw material and auxiliary material compatibility scheme (see Table 1).
2. Recording the appearance of the sample taken out. Appearance abnormalities include: (1) caking, (2) liquefaction, (3) discoloration.
(§1) The commonly used auxiliary materials for oral solid preparations are selected to mix with TJ0113 raw material in different proportions, placed under different conditions, and taken out at different time points respectively to judge the compatibility of the raw and auxiliary materials by using appearance, hygroscopic weight gain, content and relevant substances as indicators. According to the auxiliary material manual, the auxiliary materials used are commonly used auxiliary materials for oral solid preparations, and have been included in the current edition of the Chinese Pharmacopoeia, each auxiliary material has a stable nature. In order to objectively evaluate the compatibility of raw material and auxiliary materials used, the compatibility test was conducted on the raw material and each auxiliary material.
The ratio of the raw and auxiliary materials is set according to the “Basic Technical Guidance Principles for Research on Chemical Drug Preparations” and the preparation specifications, the auxiliary materials with a larger amount (such as lactose, microcrystalline cellulose) are mixed according to the ratio of main drug:diluent=1:5; the auxiliary materials with a moderate amount (such as croscarmellose sodium) are mixed according to the ratio of main drug:disintegrant=1:1; the auxiliary materials with a smaller amount (such as magnesium stearate) are mixed according to the ratio of main drug:lubricant=10:1. The manufacturer information and the ratio of raw and auxiliary materials for the compatibility experiment are shown in Table 1 below: […]

[2] = Compatibility test of API and auxiliary materials: hygroscopic weight gain; conditions: opened
Description: 3. Detecting the hygroscopic weight gain of the sample.
as §1
The ratio of the raw and auxiliary materials is set according to the “Basic Technical Guidance Principles for Research on Chemical Drug Preparations” and the preparation specifications, the auxiliary materials with a larger amount (such as lactose, microcrystalline cellulose) are mixed according to the ratio of main drug:diluent=1:5; the auxiliary materials with a moderate amount (such as croscarmellose sodium) are mixed according to the ratio of main drug:disintegrant=1:1; the auxiliary materials with a smaller amount (such as magnesium stearate) are mixed according to the ratio of main drug:lubricant=10:1. The manufacturer information and the ratio of raw and auxiliary materials for the compatibility experiment are shown in Table 1 below:
(§2) Placing the samples under experimental conditions of high temperature (60° C.), high humidity (92.5% RH), acceleration (40° C./75% RH) and illumination (visible light 5500 Lux±500 Lux, near ultraviolet light 85 μw/cm2), […] Submitting the samples for relevant indicator testing (test items include appearance, hygroscopic weight gain, content and relevant substances), and comparing the test results with the control samples (raw material).

[3] = Compatibility test of API and auxiliary materials: content by HPLC; conditions: for Content: in % (unit assumed)
Method: (§3) 4. Using HPLC method to detect the content of the sample and relevant substances.
(§4) The parameters of the HPLC method for the detection of the content and relevant substances are detailed in Table 2 below.
as §2

[4] = Compatibility test of API and auxiliary materials: relevant substances (impurities) by HPLC; conditions: opened
Method: as §3, §4, §2

## O=C(O)C[S+]([O-])c1cc(NS(=O)(=O)c2ccc(Br)cc2)c2ccccc2c1O (stereo not drawn) [API]
[1]; 40° C./75% RH, 30 d
  Appearance: gray powder
[1]; 92.5% RH, 30 d
  Appearance: gray powder
[1]; illumination, 30 days
  Appearance: turned into red, and their lower layers did not change color
[2]; 40° C./75% RH, 10 d
  Hygroscopic weight gain: −3.6
[2]; 40° C./75% RH, 30 d
  Hygroscopic weight gain: −4.2
[2]; 92.5% RH, 10 d
  Hygroscopic weight gain: 5.5
[3]; 40° C./75% RH (opened), 10 d
  Content: 98.9
[3]; 40° C./75% RH (opened), 30 d
  Content: 97.3
[3]; 60° C. (opened), 10 d
  Content: 100.1
[3]; 60° C. (opened), 30 d
  Content: 101.4
[3]; 60° C., 92.5% RH, 40° C./75% RH opened, 10 days illumination
  Change of content: did not change significantly
[3]; 92.5% RH (opened), 10 d
  Content: 97.8
[3]; 92.5% RH (opened), 30 d
  Content: 99.9
[3]; Illumination (opened), 10 d
  Content: 100.8
[3]; Initial
  Content: 99.7
[4]; 40° C./75% RH, 0 d
  % Impurities RRT0.37: <0.05%
  % Impurities RRT0.46: <0.05%
  % Impurities RRT0.89: 0.08%
  % Impurities RRT1.10: <0.05%
  % Impurities RRT1.16: 0.88%
  % Impurities RRT1.20: 0.09%
  % Impurities RRT1.24: <0.05%
  % Impurities RRT1.29: 0.14%
  % Impurities RRT1.33: 0.10%
  % Impurities RRT1.37: 0.07%
  % Impurities RRT1.41: <0.05%
  % Impurities RRT1.43: <0.05%
  % Impurities RRT1.73: <0.05%
  % Impurities RRT1.74: 0.05%
  % Impurities Total: 1.41%
[4]; 40° C./75% RH, 10 d
  % Impurities RRT0.37: <0.05%
  % Impurities RRT0.46: 0.11%
  % Impurities RRT0.89: 0.06%
  % Impurities RRT1.10: <0.05%
  % Impurities RRT1.16: 1.23%
  % Impurities RRT1.20: 0.06%
  % Impurities RRT1.24: <0.05%
  % Impurities RRT1.29: 0.08%
  % Impurities RRT1.33: 0.07%
  % Impurities RRT1.37: 0.05%
  % Impurities RRT1.41: 0.09%
  % Impurities RRT1.43: 0.07%
  % Impurities RRT1.54: 0.06%
  % Impurities RRT1.63: 0.21%
  % Impurities RRT1.65/1.70: <0.05%
  % Impurities RRT1.73: 0.59%
  % Impurities RRT1.74: 0.06%
  % Impurities Total: 2.74%
[4]; 40° C./75% RH, 30 d
  % Impurities RRT0.46: 0.20%
  % Impurities RRT0.89: 0.08%
  % Impurities RRT1.10: <0.05%
  % Impurities RRT1.16: 1.18%
  % Impurities RRT1.20: 0.05%
  % Impurities RRT1.24: <0.05%
  % Impurities RRT1.29: 0.14%
  % Impurities RRT1.33: 0.07%
  % Impurities RRT1.37: 0.08%
  % Impurities RRT1.41: 0.08%
  % Impurities RRT1.43: 0.07%
  % Impurities RRT1.54: <0.05%
  % Impurities RRT1.63: 0.24%
  % Impurities RRT1.65/1.70: <0.05%
  % Impurities RRT1.73: 0.74%
  % Impurities RRT1.74: 0.08%
  % Impurities Total: 3.01%
[4]; 60° C., 0 d
  % Impurities RRT0.46: <0.05%
  % Impurities RRT0.89: 0.08%
  % Impurities RRT1.16: 0.88%
  % Impurities RRT1.20: 0.09%
  % Impurities RRT1.29: 0.14%
  % Impurities RRT1.33: 0.10%
  % Impurities RRT1.37: 0.07%
  % Impurities RRT1.41: <0.05%
  % Impurities RRT1.73: <0.05%
  % Impurities RRT1.74: 0.05%
  % Impurities Total: 1.41%
[4]; 60° C., 10 d
  % Impurities RRT0.46: <0.05%
  % Impurities RRT0.89: 0.08%
  % Impurities RRT1.16: 0.87%
  % Impurities RRT1.20: 0.07%
  % Impurities RRT1.29: 0.17%
  % Impurities RRT1.33: 0.08%
  % Impurities RRT1.37: 0.06%
  % Impurities RRT1.41: <0.05%
  % Impurities RRT1.73: <0.05%
  % Impurities RRT1.74: 0.07%
  % Impurities Total: 1.40%
